Measured values as given in patent US20240034753A1, “THERAPEUTIC PEPTIDES” (COHBAR, INC., priority 2020, published 2024).
Square brackets hold non-standard residues; d marks the D form. Ends that are not written are not given here. Peptide text beside a SMILES is read from it.

Legend:
3T3-L1 Mouse Adipocytes = assay: Free fatty acid levels in cultured mouse adipocytes stimulated with isoproterenol; assay type: cell-based; details: peptide 10 μM, 20-22 hours then 3 hours with 1 nM isoproterenol; relative to isoproterenol treated cells
Experimental: The effect of the peptides on fatty acid metabolism can be assessed using an assay of free fatty acid levels in cultured cells such as mouse adipocytes. Peptides were initially prepared as 10 mM stock in DMSO and used at a final concentration of 10 μM (0.1% DMSO). […] Mouse 3T3-L1 cells purchased from ZenBio were seeded at 3,000 cells per well in 96-well plates in Pre-adipocyte Medium (Zen-Bio) and grown to confluence at 37° C. in a humidified atmosphere of 5% CO2/95% air. Two days after confluence, cells were placed in Adipocyte Differentiation Medium (Zen-Bio) and cultured for three additional days at 37° C. in a humidified atmosphere of 5% CO2/95% air. The culture media was then replaced with Adipocyte Maintenance Medium (Zen-Bio) and the cells maintained for an additional 9-12 days at 37° C. in a humidified atmosphere of 5% CO2/95% air with partial medium replacement every other day. Following 12-15 days of differentiation, test peptides were added at a final concentration of 10 μM in 0.1% DMSO and incubated for 20-22 hours in Adipocyte Maintenance Medium at 37° C. in a humidified atmosphere of 5% CO2/95% air. After 20-22 hours, 1 nM isoproterenol was added to all wells except untreated controls and test peptides were replenished. Insulin at 100 nM was added to control wells. Cells were incubated for 3 hours in Assay Buffer (Zen-Bio) at 37° C. in a humidified atmosphere of 5% CO2/95% air. Free fatty acid concentrations in the media were determined using a Free Fatty Acid Assay kit (Zen-Bio) according to the manufacturer's instructions using a Cytation 3 plate reader at 540 nm (BioTek, Winooski, VT). Absorbance values were corrected for untreated background and expressed relative to isoproterenol treated cells. Treatment with isoproterenol (1 nM) alone was used as the free fatty acid level stimulatory control. The relative standard deviation of the isoproterenol control was <10%. […] Free fatty acid levels for insulin (100 nM) treatment were <5% of the isoproterenol control value.

A172 Cells = assay: PrestoBlue cell viability assay; assay type: cell-based; details: human, 10 μM
Experimental: The effect of the peptides on cell viability can be assessed in cultured cells using suitable assay of viability such as the PrestoBlue® assay (Thermo Fisher Scientific, Waltham, MA). Peptides were initially prepared as 10 mM stock in DMSO and tested at a final concentration of 10 μM (0.1% DMSO). […] PrestoBlue Assay Reagent was purchased from Thermo Fisher Scientific. A172 human brain glioblastoma cell line was purchased from American Type Culture Collection (Manassas, VA). A172 cells were grown in DMEM supplemented with 10% FBS with 100 IU/ml penicillin and 100 μg/ml streptomycin. Cultures were maintained at 37° C. in a humidified atmosphere of 5% CO2/95% air. A172 cells were seeded at 8,000 cells per well on 96-well plates. […] Cell viability was determined using a PrestoBlue Assay reagent […] according to the manufacturer's instructions. Absorption for each sample well on the plate was measured using a Cytation 3 plate reader at 560 nm and 590 nm (BioTek, Winooski, VT). Activity was calculated relative to 0.1% DMSO untreated control. Treatment with 0.1% DMSO alone was used as the cell viability activity control. The relative standard deviation of the DMSO control was <5%.

[1] = test system: SH-SY5Y Neuroblastoma Cells; assay: ATP levels (CellTiter-Glo); assay type: cell-based, human; details: peptide 10 μM, 18-20 hours, relative to 0.1% DMSO treated control
Experimental: The effect of the peptides on cellular metabolism can be assessed using an assay of ATP levels in cultured cells such as human neuroblastoma cells. Peptides were initially prepared as 10 mM stock in DMSO and used at a final concentration of 10 μM (0.1% DMSO). […] CellTiter-Glo® Assay kit was purchased from Promega. SH-SY5Y human bone marrow neuroblastoma cell line was purchased from American Type Culture Collection (Manassas, VA) and licensed from Memorial Sloan-Kettering Cancer Center (New York, NY). SH-SY5Y cells were grown in DMEM/F12 medium supplemented with 10% FBS with 100 IU/ml penicillin and 100 μg/ml streptomycin. Cultures were maintained at 37° C. in a humidified atmosphere of 5% CO2/95% air. SH-SY5Y cells were seeded at 30,000 cells per well on 96-well plates. […] ATP levels were determined using a CellTiter-Glo Assay kit (Promega) according to the manufacturer's instructions. Luminescence for each sample well on the plate was measured using a Cytation 3 plate reader (BioTek, Winooski, VT). Activity was calculated relative to 0.1% DMSO treated control. The relative standard deviation of the result for the 0.1% DMSO treated control was <5%.

[2] = test system: SH-SY5Y Neuroblastoma Cells Exposed to Staurosporine; assay: ATP levels in cells exposed to staurosporine (CellTiter-Glo); assay type: cell-based, human; details: peptide 10 μM plus staurosporine (40 μM), 18-20 hours; <100% cytoprotective, >100% synergistic
Experimental: Peptides were initially prepared as 10 mM stock in DMSO and tested at a final concentration of 10 μM (0.1% DMSO). […] […] CellTiter-Glo® Assay kit was purchased from Promega. SH-SY5Y human neuroblastoma cell line was purchased from American Type Culture Collection (Manassas, VA) and licensed from Memorial Sloan-Kettering Cancer Center (New York, NY). SH-SY5Y cells were grown in DMEM/F12 medium supplemented with 10% FBS with 100 IU/ml penicillin and 100 μg/ml streptomycin. Cultures were maintained at 37° C. in a humidified atmosphere of 5% CO2/95% air. SH-SY5Y cells were seeded at 30,000 cells per well on 96-well plates. […] ATP levels were determined using a CellTiter-Glo Assay kit (Promega) according to the manufacturer's instructions. Luminescence for each sample well on the plate was measured using a Cytation 3 plate reader (BioTek, Winooski, VT). […] A value less than 100% is indicative of a cytoprotective effect, while a value greater than 100% is indicative of a synergistic effect on viability.

| Molecule | Free Fatty Acid Levels, MEAN %ISO (3T3-L1 Mouse Adipocytes) | PrestoBlue cell viability, Percent of Control Activity (A172 Cells) | ATP Levels, % Control [1] | Percent of ATP Reduction Induced by Control [2] |
| --- | --- | --- | --- | --- |
| CSCC[C@H](NC(=O)[C@H](CCCNC(=N)N)NC(=O)[C@H](CCCNC(=N)N)NC(=O)[C@@H](N)CCCNC(=N)N)C(=O)N[C@@H](Cc1ccccc1)C(=O)N[C@@H](CO)C(=O)N[C@@H](CS)C(=O)N[C@@H](Cc1ccc(O)cc1)C(=O)N[C@H](C)C(=O)N[C@@H](Cc1ccc(O)cc1)C(=O)O [compound 19] (H-RRRMFSCY[dA]Y-OH; N-terminus and C-terminus assumed) | 64.0% | 98.8% | 106.7% | 99.5% |
| MMAGVIRGVLVL [compound 7] | 66.4% | 86.2% | 103.9% | 103.3% |
| CC[C@H](C)[C@H](NC(=O)[C@@H](NC(=O)CNC(=O)[C@@H](C)NC(=O)[C@@H](N)CCSC)C(C)C)C(=O)N[C@@H](CCCNC(=N)N)C(=O)NCC(=O)N[C@H](C(=O)N[C@@H](CC(C)C)C(=O)N[C@H](C(=O)N[C@@H](CC(C)C)C(=O)O)C(C)C)C(C)C [compound 9] (H-M[dA]GVIRGVLVL-OH; N-terminus and C-terminus assumed) | 88.2% | 94.8% | 105.9% | 95.1% |
| RQWILHNGGMSFFC [compound 13] | 74.0% | 99.1% | 101.2% | 103.8% |
| CC[C@H](C)[C@H](NC(=O)[C@@H](NC(=O)CNC(=O)[C@@H](C)NC(=O)[C@@H](N)CCSC)C(C)C)C(=O)N[C@@H](CCCNC(=N)N)C(=O)N[C@@H](C)C(=O)N[C@H](C(=O)N[C@@H](CC(C)C)C(=O)N[C@H](C(=O)N[C@@H](CC(C)C)C(=O)O)C(C)C)C(C)C [compound 10] (H-M[dA]GVIRAVLVL-OH; N-terminus and C-terminus assumed) | 96.4% | 99.6% | 103.2% | 90.4% |
| CC[C@H](C)[C@H](NC(=O)[C@H](CC(C)C)NC(=O)[C@H](CC(C)C)NC(=O)[C@@H](N)CCSC)C(=O)N[C@@H](CC(C)C)C(=O)N[C@H](C(=O)N[C@@H](CC(C)C)C(=O)N[C@H](C(=O)N[C@@H](CC(C)C)C(=O)N[C@H](C)C(=O)O)C(C)C)[C@@H](C)O [compound 3] (H-MLLILTLVL[dA]-OH; N-terminus and C-terminus assumed) | 57.7% | 96.5% | 104.8% | 102.7% |
| CSCC[C@H](NC(=O)CNC(=O)[C@@H](C)NC(=O)[C@H](CC(N)=O)NC(=O)[C@H](Cc1c[nH]cn1)NC(=O)[C@H](CC(C)C)NC(=O)[C@H](CCC(=O)O)NC(=O)[C@H](Cc1c[nH]c2ccccc12)NC(=O)[C@H](CCC(N)=O)NC(=O)[C@@H](N)CCCNC(=N)N)C(=O)N[C@@H](CO)C(=O)N[C@@H](C)C(=O)N[C@@H](Cc1ccccc1)C(=O)N[C@@H](CS)C(=O)O [compound 15] (H-RQWELHN[dA]GMSAFC-OH; N-terminus and C-terminus assumed) | 54.5% | 98.8% | 101.8% | 88.4% |
| CC[C@H](C)[C@H](NC(=O)[C@H](Cc1c[nH]c2ccccc12)NC(=O)[C@H](CCC(N)=O)NC(=O)[C@@H](N)CCCNC(=N)N)C(=O)N[C@@H](CC(C)C)C(=O)N[C@@H](Cc1c[nH]cn1)C(=O)N[C@@H](CC(N)=O)C(=O)N[C@H](C)C(=O)NCC(=O)N[C@@H](CCSC)C(=O)N[C@@H](CO)C(=O)N[C@@H](Cc1ccccc1)C(=O)N[C@@H](Cc1ccccc1)C(=O)N[C@@H](CS)C(=O)O [compound 14] (H-RQWILHN[dA]GMSFFC-OH; N-terminus and C-terminus assumed) | 70.4% | 97.5% | 98.4% | 93.6% |
